Laboratory results: patent US12240862B2, “Inhibitors of peptidylarginine deiminases” (Gilead Sciences, Inc., priority 2020, dated 2025)

Target: T1, human PAD4 (Homo sapiens, UniProt Q9UM07)
T1 construct: human PAD4 (NM_012387), A2P663, was PCR amplified; His-SUMO (N, cleaved yes); made in house; host or cells: E. coli BL21(DE3)
Assay: In vitro PAD4 BAEE biochemical assay
Conditions: human PAD4, BAEE substrate; 5 nM PAD4, 2 mM calcium chloride, 3 mM BAEE; geometric mean of multiple experiments
Outline: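 Ammonia generated from BAEE serves as the readout, measured by o-phthalaldehyde after EDTA termination. Final conditions: 5 nM human PAD4 (SUMO tag cleaved), 2 mM CaCl2, 3 mM BAEE, pH 7.6 MOPS buffer, 25 °C for 2 h following a 30-min compound preincubation.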

T1 sequence (Q9UM07 2-663): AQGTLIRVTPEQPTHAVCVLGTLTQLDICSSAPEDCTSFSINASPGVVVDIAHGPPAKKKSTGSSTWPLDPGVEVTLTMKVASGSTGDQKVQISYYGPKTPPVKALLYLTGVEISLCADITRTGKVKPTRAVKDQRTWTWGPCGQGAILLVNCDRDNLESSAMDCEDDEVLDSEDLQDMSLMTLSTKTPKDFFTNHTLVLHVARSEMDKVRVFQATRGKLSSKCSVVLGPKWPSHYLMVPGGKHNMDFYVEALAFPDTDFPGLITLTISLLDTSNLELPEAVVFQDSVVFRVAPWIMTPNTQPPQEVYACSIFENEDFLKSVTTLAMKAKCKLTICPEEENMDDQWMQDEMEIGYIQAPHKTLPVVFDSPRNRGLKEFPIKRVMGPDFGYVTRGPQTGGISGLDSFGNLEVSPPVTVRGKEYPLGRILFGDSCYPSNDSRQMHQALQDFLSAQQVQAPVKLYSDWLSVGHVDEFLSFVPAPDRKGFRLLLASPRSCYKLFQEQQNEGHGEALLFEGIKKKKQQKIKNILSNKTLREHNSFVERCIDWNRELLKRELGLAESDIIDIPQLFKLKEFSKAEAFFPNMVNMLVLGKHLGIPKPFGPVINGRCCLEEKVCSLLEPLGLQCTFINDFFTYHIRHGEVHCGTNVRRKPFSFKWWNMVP

| Compound | IC50 |
| --- | --- |
| COc1cc(C(=O)N2[C@H]3CC[C@@H]2[C@H](N)C3)cc2nc(-c3cc4ccc(C(C)C(N)=O)nc4n3CC3CC3)c(C)n12 (stereo partly drawn) [Example 545] | 81.8 nM |
| COc1cc(C(=O)N2[C@H]3CC[C@@H]2[C@H](N)C3)cc2nc(-c3cc4ccc(C(C)n5cncn5)nc4n3CC3CC3)c(C)n12 (stereo partly drawn) [Example 546, [(1~{R},2~{R},4~{S})-2-amino-7-azabicyclo [2.2.1]heptan-7-yl]-[2-[1-(cyclopropylmethyl)-6-[1-(1,2,4-triazol-1-yl)ethyl]pyrrolo[2,3-b]pyridin-2-yl]-5-methoxy-3-methylimidazo[1,2-a]pyridin-7-yl]methanone] | 156 nM |
| COc1cc(C(=O)N2CCC[C@@H](N)C2)cc2nc(-c3cc4ccc(C(C)n5cc(N)cn5)nc4n3CC3CC3)c(C)n12 (stereo partly drawn) [Example 547, [(3~{R})-3-aminopiperidin-1-yl]-[2-[6-[1-(4-aminopyrazol-1-yl)ethyl]-1-(cyclopropylmethyl)pyrrolo[2,3-b]pyridin-2-yl]-5-methoxy-3-methylimidazo[1,2-a]pyridin-7-yl]methanone] | 715 nM |
| COc1cc(C(=O)N2CCC[C@@H](N)C2)cc2nc(-c3cc4ccc(C(C)n5cc(C#N)cn5)nc4n3CC3CC3)c(C)n12 (stereo partly drawn) [Example 548, 1-[1-[2-[7-[(3~{R})-3-aminopiperidine-1-carbonyl]-5-methoxy-3-methylimidazo[1,2-a]pyridin-2-yl]-1-(cyclopropylmethyl)pyrrolo[2,3-b]pyridin-6-yl]ethyl] pyrazole-4-carbonitrile] | 532 nM |
| COc1cc(C(=O)N2[C@H]3CC[C@@H]2[C@H](N)C3)cc2nc(-c3cc4ccc(-c5ccccc5C(F)(F)F)nc4n3CC3CC3)c(C)n12 [Example 549, [(1~{R},2~{R},4~{S})-2-amino-7-azabicyclo [2.2.1]heptan-7-yl]-[2-[1-(cyclopropylmethyl)-6-[2-(trifluoromethyl)phenyl]pyrrolo[2,3-b]pyridin-2-yl]-5-methoxy-3-methylimidazo[1,2-a]pyridin-7-yl]methanone] | 3670 nM |
| COc1cc(C(=O)N2[C@H]3CC[C@@H]2[C@H](N)C3)cc2nc(-c3cc4ccc(-c5ccccc5C)nc4n3CC3CC3)c(C)n12 [Example 550, [(1~{R},2~{R},4~{S})-2-amino-7-azabicyclo [2.2.1]heptan-7-yl]-[2-[1-(cyclopropylmethyl)-6-(2-methylphenyl)pyrrolo [2,3-b]pyridin-2-yl]-5-methoxy-3-methylimidazo [1,2-a]pyridin-7-yl]methanone] | 1850 nM |
| COc1cc(C(=O)N2[C@H]3CC[C@@H]2[C@H](N)C3)cc2nc(-c3cc4ccc(-c5cccnc5C(F)(F)F)nc4n3CC3CC3)c(C)n12 [Example 551, [(1~{R},2~{R},4~{S})-2-amino-7-azabicyclo [2.2.1]heptan-7-yl]-[2-[1-(cyclopropylmethyl)-6-[2-(trifluoromethyl)pyridin-3-yl]pyrrolo[2,3-b]pyridin-2-yl]-5-methoxy-3-methylimidazo [1,2-a]pyridin-7-yl] methanone] | 511 nM |
| CCc1ccc2cc(-c3nc4cc(C(=O)N5[C@H]6CC[C@@H]5[C@H](N)C6)cc(OC)n4c3N)n(CC3CC3)c2n1 [Example 552, [(1~{R},2~{R},4~{S})-2-amino-7-azabicyclo [2.2.1]heptan-7-yl]-[3-amino-2-[1-(cyclopropylmethyl)-6-ethylpyrrolo[2,3-b]pyridin-2-yl]-5-methoxyimidazo [1,2-a]pyridin-7-yl]methanone] | 153 nM |
| CCc1ccc2cc(-c3nc4cc(C(=O)N5CCC[C@@H](N)C5)cc(OC)n4c3N)n(CC3CC3)c2n1 [Example 553, [3-amino-2-[1-(cyclopropylmethyl)-6-ethylpyrrolo[2,3-b]pyridin-2-yl]-5-methoxyimidazo [1,2-a]pyridin-7-yl]-[(3~{R})-3-aminopiperidin-1-yl]methanone] | 757 nM |
| COc1cc(C(=O)N2[C@H]3CC[C@@H]2[C@H](N)C3)cc2nc(-c3cc4ccc([C@H]5CCNC(=O)C5)nc4n3CC3CC3)c(C)n12 [Example 554, (4~{S})-4-[2-[7-[(1~{R}, 2~{R},4~{S})-2-amino-7-azabicyclo[2.2.1]heptane-7-carbonyl]-5-methoxy-3-methylimidazo [1,2-a]pyridin-2-yl]-1-(cyclopropylmethyl)pyrrolo [2,3-b]pyridin-6-yl]piperidin-2-one] | 81 nM |
| COc1cc(C(=O)N2[C@H]3CC[C@@H]2[C@H](N)C3)cc2nc(-c3cc4ccc([C@@H]5CCNC(=O)C5)nc4n3CC3CC3)c(C)n12 [Example 555, (4~{R})-4-[2-[7-[(1~{R},2~{R},4~{S})-2-amino-7-azabicyclo[2.2.1]heptane-7-carbonyl]-5-methoxy-3-methylimidazo [1,2-a]pyridin-2-yl]-1-(cyclopropylmethyl)pyrrolo [2,3-b]pyridin-6-yl]piperidin-2-one] | 69.3 nM |
| COc1ccc(-c2ccc3cc(-c4nc5cc(C(=O)N6[C@H]7CC[C@@H]6[C@H](N)C7)cc(OC)n5c4C)n(CC4CC4)c3n2)c(C)n1 [Example 556, [(1~{R},2~{R},4~{S})-2-amino-7-azabicyclo [2.2.1]heptan-7-yl]-[2-[1-(cyclopropylmethyl)-6-(6-methoxy-2-methylpyridin-3-yl)pyrrolo[2,3-b]pyridin-2-yl]-5-methoxy-3-methylimidazo[1,2-a]pyridin-7-yl]methanone] | 296 nM |
| COc1cc(C(=O)N2[C@H]3CC[C@@H]2[C@H](N)C3)cc2nc(-c3cc4ccc(C(C)CC#N)nc4n3CC3CC3)c(C)n12 (stereo partly drawn) [Example 557, 3-[2-[7-[(1~{R},2~{R}, 4~{S})-2-amino-7-azabicyclo[2.2.1]heptane-7-carbonyl]-5-methoxy-3-methylimidazo[1,2-a]pyridin-2-yl]-1-(cyclopropylmethyl)pyrrolo [2,3-b]pyridin-6-yl] butanenitrile] | 77.7 nM |
| COc1cc(C(=O)N2[C@H]3CC[C@@H]2[C@H](N)C3)cc2nc(-c3cc4ccc(C5=CC(=O)N(C)CC5)nc4n3CC3CC3)c(C)n12 [Example 558, 4-[2-[7-[(1~{R},2~{R}, 4~{S})-2-amino-7-azabicyclo[2.2.1]heptane-7-carbonyl]-5-methoxy-3-methylimidazo[1,2-a]pyridin-2-yl]-1-(cyclopropylmethyl)pyrrolo [2,3-b]pyridin-6-yl]-1-methyl-2,3-dihydropyridin-6-one] | 220 nM |
| CCOC(=O)CC(C)c1ccc2cc(-c3nc4cc(C(=O)N5[C@H]6CC[C@@H]5[C@H](N)C6)cc(OC)n4c3C)n(CC3CC3)c2n1 (stereo partly drawn) [Example 559, ethyl 3-[2-[7-[(1~{R}, 2~{R},4~{S})-2-amino-7-azabicyclo[2.2.1]heptane-7-carbonyl]-5-methoxy-3-methylimidazo[1,2-a]pyridin-2-yl]-1-(cyclopropylmethyl)pyrrolo[2,3-b]pyridin-6-yl]butanoate] | 96.5 nM |
| COc1cc(C(=O)N2[C@H]3CC[C@@H]2[C@H](N)C3)cc2nc(-c3cc4ccc(C5CCN(C)C(=O)C5)nc4n3CC3CC3)c(C)n12 (stereo partly drawn) [Example 560, 4-[2-[7-[(1~{R},2~{R}, 4~{S})-2-amino-7-azabicyclo[2.2.1]heptane-7-carbonyl]-5-methoxy-3-methylimidazo[1,2-a]pyridin-2-yl]-1-(cyclopropylmethyl)pyrrolo [2,3-b]pyridin-6-yl]-1-methylpiperidin-2-one] | 114 nM |
| COc1cc(C(=O)N2[C@H]3CC[C@@H]2[C@H](N)C3)cc2nc(-c3cc4ccc(C5=CC(=O)NCC5)nc4n3CC3CC3)c(C)n12 [Example 561, 4-[2-[7-[(1~{R},2~{R}, 4~{S})-2-amino-7-azabicyclo[2.2.1]heptane-7-carbonyl]-5-methoxy-3-methylimidazo[1,2-a]pyridin-2-yl]-1-(cyclopropylmethyl)pyrrolo[2,3-b]pyridin-6-yl]-2,3-dihydro-1~{H}-pyridin-6-one] | 193 nM |
| COc1cc(C(=O)N2[C@H]3CC[C@@H]2[C@H](N)C3)cc2nc(-c3cc4ccc(C5CCNC(=O)C5)nc4n3CC3CC3)c(C)n12 (stereo partly drawn) [Example 562, 4-[2-[7-[(1~{R},2~{R}, 4~{S})-2-amino-7-azabicyclo[2.2.1]heptane-7-carbonyl]-5-methoxy-3-methylimidazo[1,2-a]pyridin-2-yl]-1-(cyclopropylmethyl)pyrrolo[2,3-b]pyridin-6-yl]piperidin-2-one] | 83.1 nM |
| COc1cc(C(=O)N2[C@H]3CC[C@@H]2[C@H](N)C3)cc2nc(-c3cc4ccc(-c5cncc(F)c5C)nc4n3CC3CC3)c(C)n12 [Example 564, [(1~{R},2~{R},4~{S})-2-amino-7-azabicyclo [2.2.1]heptan-7-yl]-[2-[1-(cyclopropylmethyl)-6-(5-fluoro-4-methylpyridin-3-yl)pyrrolo [2,3-b]pyridin-2-yl]-5-methoxy-3-methylimidazo[1,2-a]pyridin-7-yl]methanone] | 332 nM |
| CC[C@](C)(O)c1ccc2cc(-c3nc4cc(C(=O)N5[C@H]6CC[C@@H]5[C@H](N)C6)cc(OC)n4c3C)n(CC3CC3)c2n1 [Example 565, [(1~{R},2~{R},4~{S})-2-amino-7-azabicyclo [2.2.1]heptan-7-yl]-[2-[1-(cyclopropylmethyl)-6-[(2~{S})-2-hydroxybutan-2-yl]pyrrolo[2,3-b]pyridin-2-yl]-5-methoxy-3-methylimidazo[1,2-a]pyridin-7-yl]methanone] | 159 nM |
| CC[C@@](C)(O)c1ccc2cc(-c3nc4cc(C(=O)N5[C@H]6CC[C@@H]5[C@H](N)C6)cc(OC)n4c3C)n(CC3CC3)c2n1 [Example 566, [(1~{R},2~{R},4~{S})-2-amino-7-azabicyclo [2.2.1]heptan-7-yl]-[2-[1-(cyclopropylmethyl)-6-[(2~{R})-2-hydroxybutan-2-yl]pyrrolo[2,3-b]pyridin-2-yl]-5-methoxy-3-methylimidazo [1,2-a]pyridin-7-yl]methanone] | 123 nM |
